Laboratory results taken from ChEMBL document CHEMBL3588777, “Acetate-Derived Metabolites from the Brown Alga Lobophora variegata” (2015).
Converted amounts (≈) assume the structure as drawn.

Key:
[1] = tested on: Enterococcus faecalis; test: Antibacterial activity against Enterococcus faecalis ATCC 29212 assessed as inhibition of bacterial growth at 100 ug/mL incubated at 37 degC for 24 hrs by broth microdilution assay; type: functional; conditions: ATCC 29212, 24 h
[2] = tested on: Escherichia coli; test: Antibacterial activity against Escherichia coli ATCC 25922 assessed as inhibition of bacterial growth at 100 ug/mL incubated at 37 degC for 24 hrs by broth microdilution assay; type: functional; conditions: ATCC 25922, 24 h
[3] = tested on: Staphylococcus aureus; test: Antibacterial activity against Staphylococcus aureus ATCC 25923 assessed as inhibition of bacterial growth at 100 ug/mL incubated at 37 degC for 24 hrs by broth microdilution assay; type: functional; conditions: ATCC 25923, 24 h
[4] = tested on: Staphylococcus aureus; test: Antibacterial activity against Staphylococcus aureus ATCC 25923 assessed as inhibition of bacterial growth incubated at 37 degC for 24 hrs by broth microdilution assay; type: functional; conditions: ATCC 25923, 24 h
[5] = tested on: Escherichia coli; test: microbe, parasite or virus in culture; conditions: ATCC 25922, 24 h
Description: Antibacterial activity against Escherichia coli ATCC 25922 assessed as inhibition of bacterial growth incubated at 37 degC for 24 hrs by broth microdilution assay

[6] = tested on: Enterococcus faecalis; test: microbe, parasite or virus in culture; conditions: ATCC 29212, 24 h
Description: Antibacterial activity against Enterococcus faecalis ATCC 29212 assessed as inhibition of bacterial growth incubated at 37 degC for 24 hrs by broth microdilution assay

Row | SMILES | inhibition at 100 µg/mL [1] | inhibition at 100 µg/mL [2] | inhibition at 100 µg/mL [3] | MIC90 [4] | MIC90 [5] | MIC90 [6]
1 | CCCCCCCCCCCC1=C(C(C)=O)C(=O)C[C@@H](O)C1 | 23% | 29% | 100% | 25 µg/mL (≈ 81 µM) | – | –
2 | CCCCCCCCCCCc1cccc(O)c1C(C)=O | -1% | -3.3% | 65% | – | – | –
3 | CCCCCCCCCCCc1cc(O)cc(O)c1C(C)=O | -9.8% | -1% | 17% | – | – | –
4 | CCCCCCCCCCC[C@H](O)C[C@H]1CC(=O)C=C(C)O1 | 23% | 27% | -8.5% | – | – | –
5 | CCCCCCCCCCCC1CC=C/C(=C\C(C)=O)O1 (stereo not given) | 21% | 15% | -95% | – | – | –
6 | CCCCCCCCCCCC1CC=C/C(=C/C(C)=O)O1 (stereo not given) | 19% | 25% | -57% | – | – | –
7 | CCCCC/C=C\C/C=C\CCCCCCCC(=O)/C=C(/C)O | -10% | -2.4% | -17% | – | – | –
8 | O=C(O)c1cn(C2CC2)c2cc(N3CCNCC3)c(F)cc2c1=O [CIPROFLOXACIN] | – | – | – | 0.5 µg/mL (≈ 1.51 µM) | 0.016 µg/mL (≈ 0.0483 µM) | 1 µg/mL (≈ 3.02 µM)
